≈ marks a conversion by molar mass, not a printed value. Counter-ions that a name gives are not always drawn. Like-named read-outs stand apart in the source and are kept apart here.

The test system of one data set is P-388 leukemia. In words: Antitumor activity against P-388 leukemia in mice. Type of data set: in vivo. The conditions noted are these: for Toxic Deaths: macroscopic autoptic findings; for antitumor activity compared with daunorubicin and doxorubicin: at the tolerated doses (100~200 mg/Kg). The method, then:
The antitumor activity of the same compounds was tested against P-388 leukemia in mice.
^(a) Mice were treated i.p. on day 1 after tumor cell inoculation.
^(b) Evaluated on the basis of macroscopic autoptic findings.
^(c) Injected as a water solution.
^(d) Injection as a 5% aqueous ethanol suspension.
^(e) Injected as a 1:9 Tween 80 : water suspension.

A further data set concerns HeLa cells. In words: Cytotoxic activity against HeLa cells in vitro (effect on HeLa cells viability). Type of data set: cell-based. The note with it: Homo sapiens, read-out: ID50 (effect on HeLa cells viability in vitro). The method, then:
The cytotoxic activity of several of the new compounds according to the invention were tested against HeLa cells in vitro (time of exposure to the compounds=24 hours) in comparison with daunorubicin and doxorubicin.

Where [1] appears, read: dose 4.4 mg/Kg i.p. on day 1, water solution.
Where [2] appears, read: dose 4.4 mg/Kg i.p. on day 1 after tumor cell inoculation, water solution.
The mark [3] stands for this setting: dose 6.6 mg/Kg i.p. on day 1, water solution.
Where [4] appears, read: dose 6.6 mg/Kg i.p. on day 1 after tumor cell inoculation, water solution.
The mark [5] stands for this setting: dose 50 mg/Kg i.p. on day 1, III-a as 5% aqueous ethanol suspension, others as 1:9 Tween 80:water suspension.
Setting [6] is: dose 100 mg/Kg i.p. on day 1, III-a as 5% aqueous ethanol suspension, others as 1:9 Tween 80:water suspension.
[7] abbreviates: dose 200 mg/Kg i.p. on day 1, III-a as 5% aqueous ethanol suspension, others as 1:9 Tween 80:water suspension.

Turning to `COc1cccc2c1C(=O)c1c(O)c3c(c(O)c1C2=O)C[C@@](O)(C(=O)CO)C[C@@H]3O[C@H]1C[C@H](N)[C@H](O)[C@H](C)O1` [Doxorubicin . HCl, doxorubicin, reference compound], the “Toxic Deaths” value is 0/17 with P-388 leukemia (setting [1]); 0/17 with P-388 leukemia (setting [3]); 4/18 in the data set with P-388 leukemia (dose 10.0 mg/Kg i.p. on day 1, water solution). Further, the T/C % in the data set on P-388 leukemia (setting [2]) was found to be 195%; in the data set with P-388 leukemia (setting [4]) it was 206%; in the data set with P-388 leukemia (dose 10.0 mg/Kg i.p. on day 1 after tumor cell inoculation, water solution), 244%. Also, the IC50 with HeLa cells (HeLa, 24 h) is 10 ng/mL.

Regarding `COc1cccc2c1C(=O)c1c(O)c3c(c(O)c1C2=O)C[C@@](O)(C(=O)CO)C[C@@H]3O[C@H]1CC(C=O)[C@H](C)O1` (stereo partly drawn) [III (R3 =OH)], in the data set with P-388 leukemia, the “antitumor activity compared with daunorubicin and doxorubicin” value was “higher than or comparable to those of both daunorubicin and doxorubicin”.

Consider `COc1cccc2c1C(=O)c1c(O)c3c(c(O)c1C2=O)C[C@@](O)(C(C)=O)C[C@@H]3O[C@H]1CC(C=O)[C@H](C)O1` (stereo partly drawn) [Compound III-a, 7-O-(2,3,5-trideoxy-3-C-formyl-α-L-threopentofuranosyl)-daunomycinone], for which the “antitumor activity compared with daunorubicin and doxorubicin” value in the data set on P-388 leukemia was “higher than or comparable to those of both daunorubicin and doxorubicin”. The T/C % in the data set on P-388 leukemia (setting [5]) is 168%; with P-388 leukemia (setting [6]), 163%; in the data set with P-388 leukemia (setting [7]) it was 190%. In addition, the figures for the “Toxic Deaths” value in the data set with P-388 leukemia (setting [5]), with P-388 leukemia (setting [6]) and in the data set with P-388 leukemia (setting [7]) were 0/8, 0/5 and 2/5, respectively. Moreover, the IC50 in the data set on HeLa cells (HeLa cells, 24 hours exposure) stood at 320 ng/mL (≈ 0.627 µM).

As for `COc1cccc2c1C(=O)c1c(O)c3c(c(O)c1C2=O)C[C@@](O)(C(=O)CO)C[C@@H]3O[C@H]1CC(C=O)[C@H](C)O1` (stereo partly drawn) [Compound III (R3 = OH), 7-O-(2,3,5-trideoxy-3-C-formyl-α-pentofuranosyl)-adriamycinone], the T/C % in the data set with P-388 leukemia (setting [5]) is given as 163%; in the data set on P-388 leukemia (setting [6]), 190%; in the data set on P-388 leukemia (setting [7]), 231%. Moreover, the “Toxic Deaths” value was 0/9 in the data set on P-388 leukemia (setting [5]), 0/9 in the data set on P-388 leukemia (setting [6]) and 1/7 in the data set with P-388 leukemia (setting [7]). Moreover, the IC50 in the data set on HeLa cells (HeLa cells, 24 hours exposure) was found to be 140 ng/mL (≈ 0.266 µM).

Consider `COc1cccc2c1C(=O)c1c(O)c3c(c(O)c1C2=O)C[C@@](O)(C(C)=O)C[C@@H]3O[C@H]1CC(CO)[C@H](C)O1` (stereo partly drawn) [Compound IV (R3 = H), 7-O-(2,3,5-trideoxy-3-C-hydroxymethyl-α-L-threopentofuranosyl)-daunomycinone], for which the “antitumor activity compared with daunorubicin and doxorubicin” value in the data set on P-388 leukemia was “higher than or comparable to those of both daunorubicin and doxorubicin”. Besides, the values for the T/C % with P-388 leukemia (setting [5]), in the data set with P-388 leukemia (setting [6]) and in the data set with P-388 leukemia (setting [7]) were 130%, 160% and 220%, respectively. Besides, the “Toxic Deaths” value in the data set on P-388 leukemia (setting [5]) is given as 0/7; in the data set with P-388 leukemia (setting [6]) it was 0/6; with P-388 leukemia (setting [7]), 0/5. Also, the IC50 in the data set with HeLa cells (HeLa cells, 24 hours exposure) was determined as 1.6 ng/mL (≈ 0.00312 µM).

Turning to `COc1cccc2c1C(=O)c1c(O)c3c(c(O)c1C2=O)C[C@@](O)(C(C)=O)C[C@@H]3O[C@H]1CC(C=O)[C@H](C)O1` (single isomer, unassigned) [Compound III-b], the values for the T/C % in the data set with P-388 leukemia (setting [5]), in the data set on P-388 leukemia (setting [6]) and with P-388 leukemia (setting [7]) were 110%, 110% and 125%, respectively. The “Toxic Deaths” value was 0/10 in the data set on P-388 leukemia (setting [5]), 0/10 with P-388 leukemia (setting [6]) and 0/9 in the data set with P-388 leukemia (setting [7]). For the same compound, the IC50 in the data set with HeLa cells (HeLa cells, 24 hours exposure) was 1.75 ng/mL (≈ 0.00343 µM).

Regarding `COc1cccc2c1C(=O)c1c(O)c3c(c(O)c1C2=O)C[C@@](O)(C(C)=O)C[C@@H]3O[C@H]1C[C@H](N)[C@H](O)[C@H](C)O1` [Daunorubicin . HCl, daunorubicin, reference compound], the “Toxic Deaths” value is listed as 0/37 in the data set on P-388 leukemia (dose 2.9 mg/Kg i.p. on day 1, water solution); 0/38 in the data set with P-388 leukemia (setting [1]); 19/38 in the data set on P-388 leukemia (setting [3]). Also, the T/C % was determined as 169% in the data set with P-388 leukemia (dose 2.9 mg/Kg i.p. on day 1 after tumor cell inoculation, water solution); 167% in the data set with P-388 leukemia (setting [2]); 157% in the data set with P-388 leukemia (setting [4]). The IC50 with HeLa cells (HeLa, 24 h) came to 7.4 ng/mL.
